Active and inactive are the calls of the source. No cut-off for these calls is given here.
Tests used:
[1] = tested on: Streptococcus pneumoniae; assay: Antibacterial activity against high dose 1.5 x 10^7 CFU Streptococcus pneumoniae serotype 2 infected in semitherapeutic C57BL/6 mouse model assessed as bacterial count in lung at 20 mg/kg, ip measured after 1 day post infection; format: functional; details: route intraperitoneal
[2] = tested on: Streptococcus pneumoniae; assay: Antibacterial activity against high dose 1.5 x 10^7 CFU Streptococcus pneumoniae serotype 2 infected in therapeutic C57BL/6 mouse model assessed as bacterial count in lung at 20 mg/kg, ip measured after 3 days post infection; format: functional; details: route intraperitoneal
[3] = tested on: Streptococcus pneumoniae; assay: Antibacterial activity against high dose 1.5 x 10^7 CFU Streptococcus pneumoniae serotype 2 infected in therapeutic C57BL/6 mouse model assessed as bacterial count in blood at 20 mg/kg, ip measured after 3 days post infection; format: functional; details: route intraperitoneal
[4] = tested on: Streptococcus pneumoniae; assay: Antibacterial activity against high dose 1.5 x 10^7 CFU Streptococcus pneumoniae serotype 2 infected in therapeutic C57BL/6 mouse model assessed as reduction of bacteremia at 20 mg/kg, ip measured after 4 days post infection; format: functional, organism-based; set-up: dose 20 mg/kg
[5] = tested on: Streptococcus pneumoniae; assay: Antibacterial activity against high dose 1.5 x 10^7 CFU Streptococcus pneumoniae serotype 19 infected in semitherapeutic C57BL/6 mouse model assessed as bacterial count in lung at 20 mg/kg, ip measured after 1 day post infection; format: functional; details: route intraperitoneal
[6] = tested on: Streptococcus pneumoniae; assay: Antibacterial activity against high dose 1.5 x 10^7 CFU Streptococcus pneumoniae serotype 19 infected in semitherapeutic C57BL/6 mouse model assessed as reduction of bacteremia at 20 mg/kg, ip measured after 1 day post infection; format: functional, organism-based; set-up: dose 20 mg/kg
[7] = tested on: Streptococcus pneumoniae; assay: Antibacterial activity against high dose 1.5 x 10^7 CFU Streptococcus pneumoniae serotype 19 infected in semitherapeutic C57BL/6 mouse model assessed as reduction of bacteremia at 20 mg/kg, ip measured after 2 days post infection; format: functional, organism-based; set-up: dose 20 mg/kg
[8] = tested on: Streptococcus pneumoniae; assay: Antibacterial activity against 1.5 x 10^7 CFU Streptococcus pneumoniae serotype 2 infected in semitherapeutic C57BL/6 mouse model assessed as reduction of bacteremia at 20 mg/kg, ip measured after 1 day post infection; format: functional, organism-based; set-up: dose 20 mg/kg
[9] = tested on: Streptococcus pneumoniae; assay: Antibacterial activity against 1.5 x 10^7 CFU Streptococcus pneumoniae serotype 2 infected in semitherapeutic C57BL/6 mouse model assessed as reduction of bacteremia at 20 mg/kg, ip measured after 2 days post infection; format: functional, organism-based; set-up: dose 20 mg/kg
[10] = tested on: Streptococcus pneumoniae; assay: Antibacterial activity against 1.5 x 10^7 CFU Streptococcus pneumoniae serotype 19 infected in therapeutic C57BL/6 mouse model assessed as survival rate at 20 mg/kg, ip qd beginning at time of infection measured after 6 days post infection; format: functional; details: route intraperitoneal

Structure (SMILES): CO/N=C(\C(=O)N[C@@H]1C(=O)N2C(C(=O)O)=C(CSc3nc(=O)c(O)nn3C)CS[C@H]12)c1csc(N)n1 [CEFTRIAXONE]
- log10cfu [1]: 0.8
- log10cfu [2]: 4.6
- log10cfu [3]: 3.3
- Activity [4]: Active
- log10cfu [5]: 0.5
- Activity [6]: Active
- Activity [7]: Active
- Activity [8]: Active
- Activity [9]: Active
- Activity [10]: 100%

Source: ChEMBL document CHEMBL1240356, “Efficacy profiles of daptomycin for treatment of invasive and noninvasive pulmonary infections with Streptococcus pneumoniae” (2010)
